Test results reported in the supplement of paper PMC10307832.

What was measured:
Experiment in all cases: relative viability (nuclei count vs DMSO), 5 days (fraction); higher = more cells survive
IA-LM = system: IA-LM
Procedure, shortened: (§1)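 Lung cancer cell lines in 1536-well plates got either a single drug or a fixed anchor-drug dose together with five library-drug doses (not always all listed) in √10 steps, by pin tool, on the day after seeding. Nuclei were counted after 5 days, and relative viability is the treated-to-vehicle ratio of nuclei counts. Values are medians of duplicate plates.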

Calu-6 = system: Calu-6
Procedure, shortened: as §1

A549 = system: A549
Procedure, shortened: as §1

EBC-1 = system: EBC-1
Procedure, shortened: as §1

NCI-H1703 = system: NCI-H1703
Procedure, shortened: as §1

NCI-H1355 = system: NCI-H1355
Procedure, shortened: as §1

NCI-H520 = system: NCI-H520
Procedure, shortened: as §1

COR-L 105 = system: COR-L 105
Procedure, shortened: as §1

NCI-H1666 = system: NCI-H1666
Procedure, shortened: as §1

NCI-H1299 = system: NCI-H1299
Procedure, shortened: as §1

LK-2 = system: LK-2
Procedure, shortened: as §1

LCLC-103H = system: LCLC-103H
Procedure, shortened: as §1

## Cc1sc2c(c1C)C(c1ccc(Cl)cc1)=N[C@@H](CC(=O)OC(C)(C)C)c1nnc(C)n1-2 [JQ1] + CC1(C)CCC(c2ccc(Cl)cc2)=C(CN2CCN(c3ccc(C(=O)NS(=O)(=O)c4ccc(N[C@H](CCN5CCOCC5)CSc5ccccc5)c(S(=O)(=O)C(F)(F)F)c4)cc3)CC2)C1 [Navitoclax] (partner 0.5 µM)
IA-LM; first compound 0.04 µM
  relative viability: 0.745
IA-LM; first compound 0.1265 µM
  relative viability: 0.294
IA-LM; first compound 0.4 µM
  relative viability: 0.126
IA-LM; first compound 1.265 µM
  relative viability: 0.0769
IA-LM; first compound 4 µM
  relative viability: 0.0558
Calu-6; first compound 0.04 µM
  relative viability: 0.821
Calu-6; first compound 0.1265 µM
  relative viability: 0.757
Calu-6; first compound 0.4 µM
  relative viability: 0.792
Calu-6; first compound 1.265 µM
  relative viability: 0.481
Calu-6; first compound 4 µM
  relative viability: 0.309
A549; first compound 0.04 µM
  relative viability: 1.27
A549; first compound 0.1265 µM
  relative viability: 1.06
A549; first compound 0.4 µM
  relative viability: 1.13
A549; first compound 1.265 µM
  relative viability: 0.702
A549; first compound 4 µM
  relative viability: 0.313
EBC-1; first compound 0.04 µM
  relative viability: 0.389
EBC-1; first compound 0.1265 µM
  relative viability: 0.165
EBC-1; first compound 0.4 µM
  relative viability: 0.174
EBC-1; first compound 1.265 µM
  relative viability: 0.136
EBC-1; first compound 4 µM
  relative viability: 0.125
NCI-H1703; first compound 0.04 µM
  relative viability: 1.27
NCI-H1703; first compound 0.1265 µM
  relative viability: 0.637
NCI-H1703; first compound 0.4 µM
  relative viability: 0.928
NCI-H1703; first compound 1.265 µM
  relative viability: 0.405
NCI-H1703; first compound 4 µM
  relative viability: 0.309
NCI-H1355; first compound 0.04 µM
  relative viability: 0.87
NCI-H1355; first compound 0.1265 µM
  relative viability: 0.972
NCI-H1355; first compound 0.4 µM
  relative viability: 0.85
NCI-H1355; first compound 1.265 µM
  relative viability: 0.52
NCI-H1355; first compound 4 µM
  relative viability: 0.476
NCI-H520; first compound 0.04 µM
  relative viability: 1.1
NCI-H520; first compound 0.1265 µM
  relative viability: 1.19
NCI-H520; first compound 0.4 µM
  relative viability: 0.905
NCI-H520; first compound 1.265 µM
  relative viability: 0.404
NCI-H520; first compound 4 µM
  relative viability: 0.297
COR-L 105; first compound 0.04 µM
  relative viability: 0.707
COR-L 105; first compound 0.1265 µM
  relative viability: 0.567
COR-L 105; first compound 0.4 µM
  relative viability: 0.462
COR-L 105; first compound 1.265 µM
  relative viability: 0.282
COR-L 105; first compound 4 µM
  relative viability: 0.326
NCI-H1666; first compound 0.04 µM
  relative viability: 0.926
NCI-H1666; first compound 0.1265 µM
  relative viability: 0.899
NCI-H1666; first compound 0.4 µM
  relative viability: 0.787
NCI-H1666; first compound 1.265 µM
  relative viability: 0.438
NCI-H1666; first compound 4 µM
  relative viability: 0.513
NCI-H1299; first compound 0.04 µM
  relative viability: 1.02
NCI-H1299; first compound 0.1265 µM
  relative viability: 0.92
NCI-H1299; first compound 0.4 µM
  relative viability: 0.933
NCI-H1299; first compound 1.265 µM
  relative viability: 0.591
NCI-H1299; first compound 4 µM
  relative viability: 0.419
LK-2; first compound 0.04 µM
  relative viability: 0.89
LK-2; first compound 0.1265 µM
  relative viability: 0.785
LK-2; first compound 0.4 µM
  relative viability: 0.562
LK-2; first compound 1.265 µM
  relative viability: 0.255
LK-2; first compound 4 µM
  relative viability: 0.243

## Nc1ccn([C@@H]2O[C@H](CO)[C@@H](O)[C@@H]2O)c(=O)n1 [Cytarabine] + CC(C)C[C@H](NC(=O)[C@H](Cc1ccccc1)NC(=O)c1cnccn1)B(O)O [Bortezomib] (partner 0.002 µM)
IA-LM; first compound 0.005 µM
  relative viability: 0.739
IA-LM; first compound 0.01581 µM
  relative viability: 0.663
IA-LM; first compound 0.05 µM
  relative viability: 0.648
IA-LM; first compound 0.1581 µM
  relative viability: 0.411
IA-LM; first compound 0.5 µM
  relative viability: 0.165
Calu-6; first compound 0.005 µM
  relative viability: 0.864
Calu-6; first compound 0.01581 µM
  relative viability: 0.794
Calu-6; first compound 0.05 µM
  relative viability: 0.749
Calu-6; first compound 0.1581 µM
  relative viability: 0.609
Calu-6; first compound 0.5 µM
  relative viability: 0.356
EBC-1; first compound 0.005 µM
  relative viability: 0.543
EBC-1; first compound 0.01581 µM
  relative viability: 0.49
EBC-1; first compound 0.05 µM
  relative viability: 0.515
EBC-1; first compound 0.1581 µM
  relative viability: 0.341
EBC-1; first compound 0.5 µM
  relative viability: 0.326
NCI-H1703; first compound 0.005 µM
  relative viability: 0.321
NCI-H1703; first compound 0.01581 µM
  relative viability: 0.172
NCI-H1703; first compound 0.05 µM
  relative viability: 0.145
NCI-H1703; first compound 0.1581 µM
  relative viability: 0.117
NCI-H1703; first compound 0.5 µM
  relative viability: 0.134
NCI-H1355; first compound 0.005 µM
  relative viability: 1.02
NCI-H1355; first compound 0.01581 µM
  relative viability: 1.18
NCI-H1355; first compound 0.05 µM
  relative viability: 0.927
NCI-H1355; first compound 0.1581 µM
  relative viability: 0.644
NCI-H1355; first compound 0.5 µM
  relative viability: 0.389
NCI-H520; first compound 0.005 µM
  relative viability: 0.412
NCI-H520; first compound 0.01581 µM
  relative viability: 0.363
NCI-H520; first compound 0.05 µM
  relative viability: 0.697
NCI-H520; first compound 0.1581 µM
  relative viability: 0.468
NCI-H520; first compound 0.5 µM
  relative viability: 0.34
LCLC-103H; first compound 0.005 µM
  relative viability: 0.977
LCLC-103H; first compound 0.01581 µM
  relative viability: 1.17
LCLC-103H; first compound 0.05 µM
  relative viability: 0.958
LCLC-103H; first compound 0.1581 µM
  relative viability: 1.04
LCLC-103H; first compound 0.5 µM
  relative viability: 0.966
COR-L 105; first compound 0.005 µM
  relative viability: 0.676
COR-L 105; first compound 0.01581 µM
  relative viability: 0.699
COR-L 105; first compound 0.05 µM
  relative viability: 0.464
COR-L 105; first compound 0.1581 µM
  relative viability: 0.399
COR-L 105; first compound 0.5 µM
  relative viability: 0.285
NCI-H1666; first compound 0.005 µM
  relative viability: 0.7
NCI-H1666; first compound 0.01581 µM
  relative viability: 0.705
NCI-H1666; first compound 0.05 µM
  relative viability: 0.741
NCI-H1666; first compound 0.1581 µM
  relative viability: 0.353
NCI-H1666; first compound 0.5 µM
  relative viability: 0.318
NCI-H1299; first compound 0.005 µM
  relative viability: 1.01
NCI-H1299; first compound 0.01581 µM
  relative viability: 1.09
NCI-H1299; first compound 0.05 µM
  relative viability: 1.05
NCI-H1299; first compound 0.1581 µM
  relative viability: 1.03
NCI-H1299; first compound 0.5 µM
  relative viability: 1
